For this assay, the target named is T1, human TLR8 (Homo sapiens, UniProt Q9NR97).
T1 construct: expressed in transfected cells
T1 sequence (Q9NR97 27-1041): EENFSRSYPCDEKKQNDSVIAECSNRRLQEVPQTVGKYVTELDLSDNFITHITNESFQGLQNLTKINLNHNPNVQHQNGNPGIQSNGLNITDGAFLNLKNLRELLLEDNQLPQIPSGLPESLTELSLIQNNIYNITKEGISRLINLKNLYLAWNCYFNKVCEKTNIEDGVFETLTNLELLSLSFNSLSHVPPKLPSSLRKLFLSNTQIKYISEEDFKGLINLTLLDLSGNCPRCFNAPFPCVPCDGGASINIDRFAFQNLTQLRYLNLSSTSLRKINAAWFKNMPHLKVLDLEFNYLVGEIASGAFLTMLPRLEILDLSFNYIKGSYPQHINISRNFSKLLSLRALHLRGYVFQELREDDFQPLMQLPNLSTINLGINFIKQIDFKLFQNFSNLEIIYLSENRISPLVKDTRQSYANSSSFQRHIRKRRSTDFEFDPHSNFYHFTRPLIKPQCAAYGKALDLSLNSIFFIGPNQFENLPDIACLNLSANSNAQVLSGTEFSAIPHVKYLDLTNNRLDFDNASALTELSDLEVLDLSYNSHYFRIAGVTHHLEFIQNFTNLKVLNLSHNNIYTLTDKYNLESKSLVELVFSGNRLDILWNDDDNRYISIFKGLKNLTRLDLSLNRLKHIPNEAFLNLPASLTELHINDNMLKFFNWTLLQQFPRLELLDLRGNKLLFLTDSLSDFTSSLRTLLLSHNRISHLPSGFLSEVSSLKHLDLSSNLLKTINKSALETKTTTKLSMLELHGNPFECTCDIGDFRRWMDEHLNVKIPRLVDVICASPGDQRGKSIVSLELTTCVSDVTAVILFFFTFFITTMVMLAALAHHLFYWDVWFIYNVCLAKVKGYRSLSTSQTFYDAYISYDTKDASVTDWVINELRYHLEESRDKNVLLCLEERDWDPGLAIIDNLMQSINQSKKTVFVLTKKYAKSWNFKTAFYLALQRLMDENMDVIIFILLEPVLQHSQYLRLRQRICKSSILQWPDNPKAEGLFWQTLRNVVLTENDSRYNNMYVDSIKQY
Description: TLR7/8 reporter assay (HEK293, NFκB Nanoluc luciferase reporter), human TLR8. The note with it: read-out: hTLR8 EC50. Type of assay: cell-based. The protocol: HEK293 cells (ATCC, #CRL-1573) were co-transfected with an expression vector having a nucleotide sequence encoding a TLR (human TLR7, human TLR8 or mouse TLR7) protein and a Nanoluc PEST luciferase reporter vector having an NFκB response element sequence (Genbank: JQ513377 bases 33 to 84) integrated therein. Thereafter, the transfected cells were cultured in DMEM (Sigma-Aldrich, #D5796-500 mL) containing Geneticin (Gibco, #10131-027) at a final concentration of 800 μg/mL, Hygromycin B (Invitrogen, #10687010) at a final concentration of 500 μg/mL, penicillin streptomycin (Gibco, #15070-063) at a final concentration of 1% and a 10% fetal bovine serum (FBS) (HyClone, #SH30084.03) to obtain a stable cell line for expression.
To reporter cells obtained above, DMEM containing 10% FBS was added to prepare a suspension of 1×10^5 cells/mL. The suspension was added to the wells of a 384-well white plate coated with collagen I (hereinafter referred to as “384-well plate”, Corning, #356703) at a rate of 20 μL per well. The cells were cultured in the conditions of 37° C. and 5% CO2, overnight (18 hours) and allowed to adhere to the plate. A test sample was dissolved in DMSO. The solution was diluted by adding DMEM medium containing 10% FBS to the solution such that the concentration becomes 5-fold as high as a final concentration. The diluted DMEM medium was added to the wells of the 384-well plate at a ratio of 5 μL/well. After the medium was further incubated in the conditions of 37° C. and 5% CO2 for 24 hours, the plate was taken out and allowed to stand still at room temperature for 10 minutes. Thereafter, chemiluminescence was measured using Nano-Glo Luciferase Assay System (Promega, #N1120) and EnVision 2104 (PerkinElmer) plate reader. A dose-response curve was prepared for each test sample and the EC50 value was obtained as a concentration at 50% of the maximum signal. In the table, hTLR7 represents human TLR7 and hTLR8 represents human TLR8; and mTLR7 represents mouse TLR7. A data item attached with an asterisk (*) indicates the result of 7 hour-incubation and other data items are the results of 24-hour incubation.
For orientation: In a reporter assay the amount or activity of a reporter protein is the signal.

pEC50: −log10 of the molar value. Counter-ions that a name gives are not always drawn. Like-named read-outs stand apart in the source and are kept apart here.

What is called pEC50 is the negative decadic logarithm of the EC50, by convention in mol/L.

Consider `CCCCCNc1nc(N)nc2ccn(Cc3ccc(CN4CCNC[C@H]4CF)cc3OC)c12` [Ex1, 5-[(4-{[(2S)-2-(fluoromethyl)piperazin-1-yl]methyl}-2-methoxyphenyl)methyl]-N^4-pentyl-5H-pyrrolo[3,2-d]pyrimidine-2,4-diamine], for which the pEC50 (24-hour incubation) is 6.66.
As to `CCCCCNc1nc(N)nc2ccn(Cc3ccc(CN4CCN[C@@H](CF)C4)cc3OC)c12` [Ex2, 5-[(4-{[(3R)-3-(fluoromethyl)piperazin-1-yl]methyl}-2-methoxyphenyl)methyl]-N^4-pentyl-5H-pyrrolo[3,2-d]pyrimidine-2,4-diamine (trifluoroacetic acid) salt], the pEC50 (24-hour incubation) was 5.71.
Same read-out and setting: next, `CCCCCNc1nc(N)nc2ccn(Cc3ccc(CNC4CC4)cc3OC)c12` [Ex3, 5-({4-[(cyclopropylamino)methyl]-2-methoxyphenyl}methyl)-N^4-pentyl-5H-pyrrolo[3,2-d]pyrimidine-2,4-diamine]: 5.67.
On the same count and under the same terms, next, `CCCCCSc1nc(N)nc2ccn(Cc3ccc(CN4CCNCC4)cc3OC)c12` [Ex4, 5-({2-methoxy-4-[(piperazin-1-yl)methyl]phenyl}methyl)-4-(pentylsulfanyl)-5H-pyrrolo[3,2-d]pyrimidin-2-amine]: 5.61.
For `CCCCCSc1nc(N)nc2ccn(Cc3ccc(CN4CCC[C@H]4CO)cc3OC)c12` [Ex5, {(2S)-1-[(4-{[2-amino-4-(pentylsulfanyl)-5H-pyrrolo[3,2-d]pyrimidin-5-yl]methyl}-3-methoxyphenyl)methyl]pyrrolidin-2-yl}methanol], the negative-log EC50 (pEC50) (24-hour incubation) was 4.93.
Same read-out and setting: with `CCCCCNc1nc(N)nc2c(Cl)cn(Cc3ccc(CN4CCC[C@H]4CO)cc3OC)c12` [Ex6, {(2S)-1-[(4-{[2-amino-7-chloro-4-(pentylamino)-5H-pyrrolo[3,2-d]pyrimidin-5-yl]methyl}-3-methoxyphenyl)methyl]pyrrolidin-2-yl}methanol] the figure was 6.02.
Still for that read-out and setting: with `CCCCCNc1nc(N)nc2c(Br)cn(Cc3ccc(CN4CCC[C@H]4CO)cc3OC)c12` [Ex7, {(2S)-1-[(4-{[2-amino-7-bromo-4-(pentylamino)-5H-pyrrolo[3,2-d]pyrimidin-5-yl]methyl}-3-methoxyphenyl)methyl]pyrrolidin-2-yl}methanol] the figure was 5.70; with `CCCCCNc1nc(N)nc2cc(C)n(Cc3ccc(CN4CCNCC4)cc3OC)c12` [Ex8, 5-({2-methoxy-4-[(piperazin-1-yl)methyl]phenyl}methyl)-6-methyl-N^4-pentyl-5H-pyrrolo[3,2-d]pyrimidine-2,4-diamine hydrochloride], 5.68; with `CCCCCNc1nc(N)nc2ccn(Cc3ccc(CC4CCNCC4)cc3OC)c12` [Ex9, 5-({2-methoxy-4-[(piperidin-4-yl)methyl]phenyl}methyl)-N^4-pentyl-5H-pyrrolo[3,2-d]pyrimidine-2,4-diamine], 5.93.
The same measure, in the same setting: next, `CCCCCNc1nc(N)nc2ccn(Cc3ccc(CN4CCNC[C@@H]4CF)cc3OC)c12` [Ex10, 5-[(4-{[(2R)-2-(fluoromethyl)piperazin-1-yl]methyl}-2-methoxyphenyl)methyl]-N^4-pentyl-5H-pyrrolo[3,2-d]pyrimidine-2,4-diamine]: 6.15.
For the compound `COc1cc(CN2CCNC[C@H]2CF)ccc1Cn1ccc2nc(N)nc(SCc3cc(C)on3)c21` [Ex11], for the setting “24-hour incubation”, the pEC50 was 4.88.
For `CCCCCNc1nc(N)nc2ccn(Cc3ccc(CNCC4CCC4)cc3OC)c12` [Ex12], the pEC50 (asterisk (*): 7 hour-incubation) is 6.16.
Consider `CCCCCSc1nc(N)nc2ccn(Cc3ccc(CN4CC[C@H]4CO)cc3OC)c12` [Ex13], for which the pEC50 (24-hour incubation) is 5.21.
Same read-out and setting: with `CCCCCSc1nc(N)nc2ccn(Cc3ccc(CN4CCC(O)CC4)cc3OC)c12` [Ex14] the figure was 5.18; with `CCCCCSc1nc(N)nc2ccn(Cc3ccc(CN4CC[C@@H](CN)C4)cc3OC)c12` [Ex15], 5.31; with `CCCCCNc1nc(N)nc2c(Cl)cn(Cc3ccc(CN4CC[C@H]4CO)cc3OC)c12` [Ex17], 5.43.
Same read-out and setting: with `CCCCCNc1nc(N)nc2c(Cl)cn(Cc3ccc(CN4CCC[C@H]4C(C)(C)O)cc3OC)c12` [Ex18] the figure was 5.44.

Source of the values: patent publication US12390536B2, “Antibody-drug complex containing toll-like receptor 7/8 dual agonist compound” (ASTELLAS PHARMA INC., priority 2022, dated 2025).
